# Assays:
# [1] = test system: vascular endothelial growth factor (VEGF); assay: Ex.8 therapeutic HIE rat model: VEGF staining; format: in vivo; conditions: 5 mg/kg/day E4, hippocampus (same region)
# Method: To study the therapeutic effect of estetrol, newborn rat pups were assigned to one of the following 14 groups at postnatal day 7 (FIG. 23(B)): Sham group (n=12), Vehicle (n=15), 5 mg/kg/day E4 (n=11), 10 mg/kg/day E4 (n=11), 5 mg/kg/day E4+1.6 mg/kg/day PROG (n=11), 10 mg/kg/day E4+1.6 mg/kg/day PROG (n=11), 5 mg/kg/day E4+16 mg/kg/day PROG (n=11), 10 mg/kg/day E4+16 mg/kg/day PROG (n=13), 5 mg/kg/day E4+136 ng//kg/day E2 (n=11), 10 mg/kg/day E4+136 ng/kg/day E2 (n=11), 5 mg/kg/day E4+1.6 mg/kg/day PROG+136 ng/kg/day E2 (n=12), 10 mg/kg/day E4+1.6 mg/kg/day PROG+136 ng/kg/day E2 (n=11), 5 mg/kg/day E4+16 mg/kg/day PROG+136 ng/kg/day E2 (n=11), 10 mg/kg/day E4+16 mg/kg/day PROG+136 ng/kg/day (n=12) groups. […] After surgery, the pups were returned to their dams and allowed to recover for 1 hour. The pups were then placed in a humidified hypoxic in vivo cabinet (CoyLab). […]
# The sections were heated in 10 mmol/L citrate buffer (pH 6.0) at 100° C. for 10 minutes. […] Samples were analyzed with the aid of a microscope (Olympus Vanox AHBT3, Olympus), and the ImageJ software 15 (NIH). The percentage of positively stained cells was quantified as a sum of positively stained either DCX or VEGF cells divided by the total number of DAPI positive cells expressed in percentage.
# [2] = test system: CD11b-positive cells; assay: Ex.6 IL-1β induced diffuse white matter injury mouse model: microglial phenotype gene expression (qRT-PCR); format: in vivo
# Method: Experimental protocols were approved by the institutional guidelines of the Institut National de la Santé et de la Recherche Scientifique (Inserm, France), and met the guidelines for the United States Public Health Service's Policy on Humane Care and Use of Laboratory Animals (NIH, Bethesda, Md., USA). Experiments were performed using OF1 strain mice purchased from Charles River (L'Arbresle, France) and born in our animal facility. Animals were housed under a 12 h light-dark cycle, had access to food and water ad libitum. Sex was determined at birth and confirmed at sacrifice. To avoid any potential variability linked to sex to differences. only male pups were used. Mice received twice a day from P1 to P4 and once on P5 a 5 μl intraperitoneal injection containing either PBS alone (sham group) or 10 μg/kg/dose recombinant mouse IL-1β in PBS. Vehicle group received only IL-1β injections while 10 μg E4 (5 mg/kg) or 20 μg E4 (10 mg/kg) was added to IL-1β once a day from P1 to P5 for E4 treated groups. Pups were sacrificed 3 hours after the first intraperitoneal injection at P1, 3 hours after last treatment at P5 or at P10 by intracardiac perfusion with NaCl 0.9% after anaesthesia by inhaled isoflurane.
# At P1 and P5, brains were collected for cell dissociation and CD11b-positive (P1 and P5) and O4-positive (P5) cell enrichment using a magnetic coupled antibody extraction technique (MACS), as previously described and according to the manufacturer's protocol (Miltenyi Biotec, Bergisch Gladbach, Germany). The CD11b antigen is expressed on the surface of microglial cells while the O4 antigen is expressed on the cell surface of pre-OLs (Back et al., 2001). Briefly, after removing the cerebellum and olfactory bulbs, brains were pooled (n=3 at P1 and n=2 at P5) and dissociated using the neural tissue dissociation kit containing papain. From the resulting brain homogenate CD11b-positive cells (P1) and O4-positive then CD11b-positive cells (P5) were enriched by MACS, using the anti-CD11b or anti-O4 MicroBeads. After elution the isolated cells were centrifuged for 5 min at 600 g at 4° C. and conserved at −80° C.
# Preparation of samples for quantitative reverse-transcriptase polymerase-chain reaction (qRT-PCR), primer design, and PCR protocol, were similar to that previously described (Favrais et al., 2011; Chhor et al., 2013). Briefly, RNA extraction was performed by with RNeasy mini kit according to the manufacturer's instructions (Qiagen, Courtaboeuf, France). RNA quality and concentration were assessed by spectrophotometry with the Nanodrop™ apparatus (Thermoscientific, Wilmington, Del., USA). Total RNA (0.5-1 μg) was subjected to reverse transcription using the iScript™ cDNA synthesis kit (Bio-Rad, Marnes-la-Coquette, France). qPCR was using SYBR Green Supermix (Bio-Rad). The relative expression of genes of interest (GOI) were expressed relative to expression of the reference gene, ribosomal protein L13a (Rpl13a) for CD11b+ cells and Glyceraldehyde 3-phosphate dehydrogenase (GAPDH) for O4+ cells and anterior brains based on reference gene suitability testing. Analyses were performed with the Biorad CFX manager 2.1 software. The relative quantities are expressed as the specific ratio between the gene of interest and Rpl13 or GAPDH. The data are presented as relative mRNA units with respect to control values (expressed as a fold-difference with respect to the mean of sham values).
# [3] = IL-1β P1 to P5 + E4 10 mg/kg, P5
# [4] = IL-1β+E4 5 mg/kg ip, P1, 3 h post-treatment, vs IL-1β group
# [5] = IL-1β+E4 5 and 10 mg/kg ip, P1, vs IL-1β group
smiles,measurement,setting,value
"C[C@]12CC[C@@H]3c4ccc(O)cc4CC[C@H]3[C@@H]1[C@@H](O)[C@@H](O)[C@@H]2O [E4, 1,3,5(10)-estratrien-3,15α,16α,17β-tetrol]",VEGF positively stained cell percentage,[1],54.05±3.51%
same,over-expression of IL1Rn (M2b),"[2]; IL-1β P1 to P5 + E4 5 mg/kg, P5",significantly limited
same,inflammation induced over-expression of IL1Rn (M2b),[2]; [3],prevented
same,inflammation induced over-expression of IL4Ra (M2b),[2]; [3],prevented
same,inflammation induced over-expression of iNOS (M1),[2]; [3],prevented
same,expression of CD32 mRNA (M1),[2]; [4],significantly down-regulated
same,expression of CD86 mRNA (M1),[2]; [4],significantly down-regulated
same,expression of genes associated with the M2a repair/regeneration phenotype,"[2]; IL-1β+E4 10 mg/kg ip, P1",non-significant trend to the up-regulation
same,expression of Ptgs2 mRNA (M1),"[2]; IL-1β+E4 10 mg/kg ip, P1, vs IL-1β group",significantly decreased
same,expression of IL1RN (M2b),[2]; [5],decreased
same,expression of Sphk1 (M2b),[2]; [5],decreased
same,iNOS mRNA (M1),[2]; [5],significantly decreased

# From US9808470B2, “Estrogenic components for use in the treatment of neurological disorders” (UNIVERSITE DE LIEGE, priority 2012, dated 2017)
